Test results published in patent publication US20220386606A1, “SPECIFICALLY SUBSTITUTED 3-PHENYL-5-SPIROCYCLOPENTYL-3-PYRROLIN-2-ONES AND THEIR USE AS HERBICIDES” (Bayer Aktiengesellschaft, priority 2019, published 2022).

Columns and labels:
AVEFA [1] = assay: Post-emergence herbicidal action against AVEFA; type: in vivo, Avena fatua; conditions: 80 g/ha, visual assessment after about 3 weeks
Outline: (§1)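 Weeds and crops grown in sandy loam in the greenhouse, treated post-emergence at the one-leaf stage (2–3 weeks after sowing). WP or EC formulations sprayed as aqueous suspension/emulsion at 600–800 l/ha water with 0.2% wetting agent. Visual % activity scored after about 3 weeks versus untreated controls (100% = dead, 0% = like control).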

SETVI [2] = assay: Pre-emergence herbicidal action against SETVI; type: in vivo, Setaria viridis; conditions: 320 g/ha, scored visually after 3 weeks vs untreated controls
Outline: (§2)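 Pre-emergence soil-surface application: WP/EC in water, 600 to 800 L/ha, + 0.2% wetting agent, onto soil-covered seeds in sandy loam. Greenhouse, 3 wk. Visual % activity vs untreated (100% = dead).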

VERPE = assay: Pre-emergence herbicidal action against VERPE; type: in vivo, Veronica persica; conditions: 320 g/ha
Outline: as §2

DIGSA [3] = assay: Pre-emergence herbicidal action against DIGSA; type: in vivo, Digitaria sanguinalis; conditions: 320 g/ha, scored visually after 3 weeks vs untreated controls
Outline: as §2

ALOMY [4] = assay: Post-emergence herbicidal action against ALOMY; type: in vivo, Alopecurus myosuroides; conditions: 80 g/ha, visual assessment after about 3 weeks
Outline: as §1

ALOMY [5] = assay: Pre-emergence herbicidal action against ALOMY; type: in vivo, Alopecurus myosuroides; conditions: 320 g/ha, scored visually after 3 weeks vs untreated controls
Outline: as §2

ECHCG [6] = assay: Post-emergence herbicidal action against ECHCG; type: in vivo, Echinochloa crus-galli; conditions: 80 g/ha, visual assessment about 3 weeks after treatment vs untreated controls
Outline: as §1

LOLRI [7] = assay: Post-emergence herbicidal action against LOLRI; type: in vivo, Lolium rigidum; conditions: 80 g/ha, visual assessment about 3 weeks after treatment vs untreated controls
Outline: as §1

VIOTR [8] = assay: Post-emergence herbicidal action against VIOTR; type: in vivo, Viola tricolor; conditions: 80 g/ha, visual assessment about 3 weeks after treatment vs untreated controls
Description: Seeds of monocotyledonous and dicotyledonous weed and crop plants are laid out in sandy loam soil in wood-fiber pots, covered with soil and cultivated in a greenhouse under good growth conditions. 2 to 3 weeks after sowing, the test plants are treated at the one-leaf stage. The compounds of the invention, formulated in the form of wettable powders (WP) or as emulsion concentrates (EC), are then sprayed onto the green parts of the plants as aqueous suspension or emulsion at a water application rate equating to 600 to 800 l/ha with addition of 0.2% wetting agent. After the test plants have been left to stand in the greenhouse under optimal growth conditions for about 3 weeks, the action of the preparations is assessed visually in comparison to untreated controls (herbicidal action in percent (%): 100% activity=the plants have died, 0% activity=like control plants).

DIGSA [9] = assay: Post-emergence herbicidal action against DIGSA; type: in vivo, Digitaria sanguinalis; conditions: 80 g/ha, visual assessment about 3 weeks after treatment vs untreated controls
Outline: as §1

MATIN = assay: Pre-emergence herbicidal action against MATIN; type: in vivo; conditions: 320 g/ha
Outline: as §2

LOLRI [10] = assay: Pre-emergence herbicidal action against LOLRI (Table 8, titled post-emergence at 320 g/ha); type: in vivo, Lolium rigidum; conditions: table stands in the pre-emergence section
Outline: as §2

ECHCG [11] = assay: Pre-emergence herbicidal action against ECHCG; type: in vivo, Echinochloa crus-galli; conditions: 320 g/ha, scored visually after 3 weeks vs untreated controls
Outline: as §2

SETVI [12] = assay: Post-emergence herbicidal action against SETVI; type: in vivo, Setaria viridis; conditions: 80 g/ha, visual assessment about 3 weeks after treatment vs untreated controls
Outline: as §1

AVEFA [13] = assay: Pre-emergence herbicidal action against AVEFA; type: in vivo, Avena fatua; conditions: 320 g/ha, scored visually after 3 weeks vs untreated controls
Outline: as §2

VIOTR [14] = assay: Pre-emergence herbicidal action against VIOTR; type: in vivo, Viola tricolor; conditions: 320 g/ha
Outline: as §2

AMARE = assay: Pre-emergence herbicidal action against AMARE; type: in vivo, Amaranthus retroflexus; conditions: 320 g/ha
Outline: as §2

| SMILES | Post-emergence action against AVEFA in % (AVEFA [1]) | Pre-emergence action against SETVI in % (SETVI [2]) | Pre-emergence action against VERPE in % (VERPE) | Pre-emergence action against DIGSA in % (DIGSA [3]) | Post-emergence action against ALOMY in % (ALOMY [4]) | Pre-emergence action against ALOMY in % (ALOMY [5]) | Post-emergence action against ECHCG in % (ECHCG [6]) | Post-emergence action against LOLRI in % (LOLRI [7]) | Post-emergence action against VIOTR in % (VIOTR [8]) | Post-emergence action against DIGSA in % (DIGSA [9]) | Pre-emergence action against MATIN in % (MATIN) | Pre-emergence herbicidal action against LOLRI in % (LOLRI [10]) | Pre-emergence action against ECHCG in % (ECHCG [11]) | Post-emergence action against SETVI in % (SETVI [12]) | Pre-emergence action against AVEFA in % (AVEFA [13]) | Pre-emergence action against VIOTR in % (VIOTR [14]) | Pre-emergence action against AMARE in % (AMARE) |
| --- | --- | --- | --- | --- | --- | --- | --- | --- | --- | --- | --- | --- | --- | --- | --- | --- | --- |
| CC#Cc1cc(C)c(C2=C(OC(=O)OCC)C3(CCC(COCC)C3)NC2=O)c(OC)c1 (centres unmarked) [Example P-49] | 90% | 100% | 80% | 100% | 100% | 100% | 100% | 100% | 80% | 90% | 80% | 100% | 100% | 100% | 100% | 100% | – |
| C=CCOCC1CCC2(C1)NC(=O)C(c1c(C)cc(C#CC)cc1OC)=C2O (centres unmarked) [Example I-47] | 90% | 100% | – | 100% | 100% | 100% | 100% | 100% | 100% | – | – | 100% | 100% | – | 90% | 100% | – |
| CC#Cc1cc(C)c(C2=C(OC(=O)OCC)C3(CCC(COCC)C3)NC2=O)c(Br)c1 (centres unmarked) [Example P-35] | 80% | 100% | 80% | 100% | 100% | 100% | 90% | 100% | 90% | 100% | – | 100% | 100% | 100% | 100% | 100% | 100% |
